Experimental data: patent US20200216812A1, “IN VIVO METHOD FOR DIFFERENTIATING HUMAN PLURIPOTENT STEM CELLS INTO ATRIAL CARDIOMYOCYTES” (Ncardia B.V., priority 2016, published 2020)

Key:
Assay type in all cases: cell-based, human
COUP-TFI = test: Qualitative immunoreactivity signal for COUP-TFI in hiPSC-derived cardiomyocytes (co-staining with alpha actinin); design: key: +++: Strongest immunoreactivity signal (i.e. fluorescence staining); ++: Moderate immunoreactivity signal (i.e. fluorescence staining); +: Lowest immunoreactivity signal (i.e. fluorescence staining); +/−: Marginal immunoreactivity signal (i.e. fluorescence staining) (i.e. very low signal, not consistently observed in all cells).; −: No immunoreactivity signal (i.e. fluorescence staining)
Experimental: (§1) The purpose of this experiment was to determine the influence of retinoic acid (RA) (i.e. all-trans retinoic acid was used in the experiments below) on differentiation of hiPSC into atrial cardiomyocytes. Specifically, the influence of all-trans retinoic acid concentration (1 microM vs 10 microM) as well as the effect of timing/duration of retinoic acid application (i.e. d2-4 vs d3-d4 vs d2-18) were tested according to the following experimental scheme:
(§2) The aqueous media consisted of the following composition: 46.5% IMDM (Gibco 21056), 0.25% Bovostar BSA, 46.5% Ham's F12 with Glutamax, 2 mM Glutamax, 450 nM alphaMTG, 0.05 mg/ml ascorbic acid, 0.5% 5000 U/ml Pen/Strep (Gibco 12070), 0.01% 1000* Trace elements mix B (Cellgro 99-176-CL), 0.1% 1000* Trace elements mix C (Cellgro 99-176-CL). The aqueous media was used in all four treatment groups, except that RA was added at different concentrations depending on the given treatment group, i.e. 10 microM for treatment group 1 and 2 and 1 microM for treatment groups 3 and 4.
(§3) For all treatment groups, CHIR-99021 was used at a concentration of 5 microM.
(§4) For all experimental groups, a combination of 5 microM of XAV-939 and 0.25 microM of IWP-L6 was used. Plating of hiPSC hiPSC were seeded in 12-well plates at density of 60.000 cells per well or a split ratio that was empirically determined to give 30-80% confluence after 4 days. Culture media was replaced after 4 days, in each treatment group, with a differentiation media as described in Table 1.
(§5) Step a): The hiPSC were contacted with 5 microM of CHIR-99021 for a period of 48 hours. At the term of step a), the media was refreshed, i.e. replaced by a media devoid of CHIR-99021 and comprising 5 microM of XAV-939 and 0.25 microM of IWP-L6.
(§6) Step b): Immediately after having refreshed the medium of step a), i.e. immediately after the 48 hours of step a) (which correspond to 2 days after having initiated step a), the cells were contacted with 5 microM of XAV-939 and 0.25 microM of IWP-L6 as well as with 10 microM of all trans retinoic acid. The cells were cultured in this media for 48 hours. At the term of step b), the media was refreshed with a media but devoid of CHIR-99021, XAV-939, and IWP-L6. The hiPSC-derived cardiomyocytes were further cultured until 14 days after initiating step a), after which they were harvested and submitted to immunohistochemical procedure for assessment of atrial phenotype (see example 3 below).
(§7) Step b): Immediately after having refreshed the medium of step a), i.e. immediately after the 48 hours of step a), the cells were contacted with 5 microM of XAV-939 and 0.25 microM of IWP-L6. At 24 hours after initiating step b) (which corresponds to 3 days after having initiated step a), 10 microM of retinoic acid was added to the media of step b). […]

COUP-TFII = test: Qualitative immunoreactivity signal for COUP-TFII in hiPSC-derived cardiomyocytes (co-staining with alpha actinin); design: key: +++: Strongest immunoreactivity signal (i.e. fluorescence staining); ++: Moderate immunoreactivity signal (i.e. fluorescence staining); +: Lowest immunoreactivity signal (i.e. fluorescence staining); +/−: Marginal immunoreactivity signal (i.e. fluorescence staining) (i.e. very low signal, not consistently observed in all cells).; −: No immunoreactivity signal (i.e. fluorescence staining)
Experimental: as §1, §2, §3, §4, §5, §6, §7

hiPSC = test: Differentiation of hiPSC into cardiomyocytes having an atrial phenotype (phenotype analysis, text summary); conditions: for differentiation of hiPSC into atrial cardiomyocytes (immunoreactive signal for COUP-TF1 and/or COUP-TF1): 1 microM; for differentiation of hiPSC into cardiomyocytes having an atrial phenotype (immunoreactive signal for COUP-TF1 and/or COUP-TF1): 10 microM
Experimental: as §1, §5, §6
as §6, with “step” for “step a) (which correspond to 2 days after having initiated step”, “of IWP-L6. At 24 hours after initiating step b) (which corresponds to 3 days after having initiated step a),” for “of IWP-L6 as well as with”, “of” for “of all trans”, “retinoic acid was added to the media of step b).” for “retinoic acid.”, “for 24” for “for 48”
as §7, with “1” for “10”, “b). The cells were cultured in this media for 24 hours. At the term of step b), the media was refreshed with a media but devoid of CHIR-99021, XAV-939, and IWP-L6.” for “b).”

[1] = treatment group 1: 10 microM RA/d 2-4
[2] = treatment group 2: 10 microM RA/d 3-4
[3] = treatment group 3: 1 microM RA/d 3-4
[4] = treatment group 4: 1 microM RA/d 2-14 + 4

For `CC1=C(/C=C/C(C)=C/C=C/C(C)=C/C(=O)O)C(C)(C)CCC1` [RA, all-trans retinoic acid], the “intensity of the immunoreactivity signal for COUP-TFI” value (COUP-TFI; [1]) was “++”, the “intensity of the immunoreactivity signal for COUP-TFI” value (COUP-TFI; [2]) was “+” and the “intensity of the immunoreactivity signal for COUP-TFI” value (COUP-TFI; [3]) was “−”. The “intensity of the immunoreactivity signal for COUP-TFI” value (COUP-TFI; [4]) was “+/−”, the “intensity of the immunoreactivity signal for COUP-TFII” value (shortened to “intensity … for COUP-TFII”) (COUP-TFII; [1]) was “+++” and the “intensity … for COUP-TFII” value (COUP-TFII; [2]) was “++”. For the same compound, the “intensity … for COUP-TFII” value (COUP-TFII; [3]) was “−”, the “intensity … for COUP-TFII” value (COUP-TFII; [4]) was “+” and the “differentiation of hiPSC into atrial cardiomyocytes (immunoreactive signal for COUP-TF1 and/or COUP-TF1)” value (hiPSC; added 2 days (48 hours) after initiating step a, duration 12 days (group 4)) was “low immunoreactive signal”. The “differentiation of hiPSC into atrial cardiomyocytes (immunoreactive signal for COUP-TF1 and/or COUP-TF1)” value (hiPSC; added 3 days (72 hours) after initiating step a, duration 24 hours (group 3)) was “marginal or no immunoreactive signal”, the “differentiation of hiPSC into cardiomyocytes having an atrial phenotype (immunoreactive signal for COUP-TF1 and/or COUP-TF1)” value (hiPSC; added 2 days (48 hours) after initiating step a, duration 48 hours (group 1)) was “strongest immunoreactive signal” and the “differentiation of hiPSC into cardiomyocytes having an atrial phenotype (immunoreactive signal for COUP-TF1 and/or COUP-TF1)” value (hiPSC; added 3 days (72 hours) after initiating step a, duration 24 hours (group 2)) was “moderate immunoreactive signal”.
